Results reported in paper PMC11341970 (RSC Advances, 2024).
Where two headings read alike, the source gives them in different places.

Experiments:
hBACE 1 = hBACE 1 (Homo sapiens, UniProt P56817); assay: BACE 1 inhibition assay; format: biochemical
EeAChE = EeAChE (Electrophorus electricus, UniProt O42275); assay: AChE inhibition assay; format: biochemical; settings: for AChE inhibition (% of inhibition): concentration not given
[1] = read-out: hBACE 1 IC50 (μM) ± SD, FRET assay, mean ± SD of three experiments
[2] = read-out: eeAChE IC50 (μM) ± SD, Ellman assay, mean ± SD of three experiments

Sequence of hBACE 1 (P56817 46-501): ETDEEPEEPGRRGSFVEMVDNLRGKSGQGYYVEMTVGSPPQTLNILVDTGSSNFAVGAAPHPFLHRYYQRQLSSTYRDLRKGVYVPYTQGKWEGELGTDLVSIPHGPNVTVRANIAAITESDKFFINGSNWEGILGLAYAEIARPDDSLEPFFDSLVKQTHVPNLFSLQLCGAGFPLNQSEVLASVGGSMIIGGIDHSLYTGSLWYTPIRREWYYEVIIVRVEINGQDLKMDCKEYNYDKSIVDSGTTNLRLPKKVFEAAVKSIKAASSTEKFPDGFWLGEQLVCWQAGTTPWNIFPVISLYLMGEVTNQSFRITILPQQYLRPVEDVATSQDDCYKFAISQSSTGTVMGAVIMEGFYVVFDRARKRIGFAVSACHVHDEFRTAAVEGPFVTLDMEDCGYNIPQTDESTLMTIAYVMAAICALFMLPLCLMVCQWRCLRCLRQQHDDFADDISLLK
Sequence of EeAChE (O42275 24-633): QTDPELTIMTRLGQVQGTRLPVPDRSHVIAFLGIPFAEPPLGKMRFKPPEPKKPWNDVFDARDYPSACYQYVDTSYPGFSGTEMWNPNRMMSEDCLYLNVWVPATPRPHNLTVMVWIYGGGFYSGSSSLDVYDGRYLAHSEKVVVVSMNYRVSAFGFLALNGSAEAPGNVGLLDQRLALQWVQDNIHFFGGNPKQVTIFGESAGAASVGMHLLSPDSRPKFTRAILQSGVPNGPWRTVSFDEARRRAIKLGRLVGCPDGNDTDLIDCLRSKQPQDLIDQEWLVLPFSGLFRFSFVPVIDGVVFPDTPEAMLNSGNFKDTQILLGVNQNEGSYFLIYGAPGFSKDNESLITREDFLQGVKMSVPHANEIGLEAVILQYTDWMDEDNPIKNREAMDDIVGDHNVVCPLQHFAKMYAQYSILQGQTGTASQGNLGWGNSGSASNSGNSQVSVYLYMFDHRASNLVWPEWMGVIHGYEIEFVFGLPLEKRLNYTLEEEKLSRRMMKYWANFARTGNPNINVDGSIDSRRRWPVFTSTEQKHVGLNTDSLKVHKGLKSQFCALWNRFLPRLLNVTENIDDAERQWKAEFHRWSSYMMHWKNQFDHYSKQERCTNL

## [H]/N=C(/N)NN=C(/C=C/c1ccccc1)c1cccn1Cc1ccccc1 [Compound 1a, (Z)-2-((E)-1-(1-Benzyl-1H-pyrrol-2-yl)-3-phenylallylidene)hydrazine-1-carboximidamide]
hBACE 1
  IC50: 169.9 ± 1.27 µM
EeAChE
  IC50: 215.3 ± 0.14 µM

## [H]/N=C(/N)NN=C(/C=C/c1ccccc1Cl)c1cccn1Cc1ccccc1 [Compound 1b, (Z)-2-((E)-1-(1-Benzyl-1H-pyrrol-2-yl)-3-(2-chlorophenyl)allylidene)hydrazine-1-carboximidamide]
hBACE 1
  IC50: 183.8 ± 0.92 µM
EeAChE
  IC50: 174 ± 0.92 µM

## [H]/N=C(/N)NN=C(/C=C/c1ccc([N+](=O)[O-])cc1)c1cccn1Cc1ccccc1 [Compound 1c, (Z)-2-((E)-1-(1-Benzyl-1H-pyrrol-2-yl)-3-(4-nitrophenyl)allylidene)hydrazine-1-carboximidamide]
hBACE 1
  IC50: 194.3 ± 0.99 µM
EeAChE
  IC50: 43.25 ± 0.41 µM
  AChE inhibition (% of inhibition): 38.07%

## [H]/N=C(/N)NN=C(/C=C/c1ccc(Cl)cc1Cl)c1cccn1Cc1ccccc1 [Compound 1d, (Z)-2-((E)-1-(1-Benzyl-1H-pyrrol-2-yl)-3-(2,4-dichlorophenyl)allylidene)hydrazine-1-carboximidamide]
hBACE 1
  IC50: 207.9 ± 1.91 µM
EeAChE
  IC50: 55.4 ± 0.91 µM
  AChE inhibition (% of inhibition): 26.75%

## [H]/N=C(/N)NN=C(/C=C/c1ccccc1F)c1cccn1Cc1ccccc1 [Compound 1e, (Z)-2-((E)-1-(1-Benzyl-1H-pyrrol-2-yl)-3-(2-fluorophenyl)allylidene)hydrazine-1-carboximidamide]
hBACE 1
  IC50: 174.5 ± 1.48 µM
EeAChE
  IC50: 172.3 ± 1.56 µM

## [H]/N=C(/N)NN=C(/C=C/c1ccc(OC)cc1)c1cccn1Cc1ccccc1 [Compound 1f, (Z)-2-((E)-1-(1-Benzyl-1H-pyrrol-2-yl)-3-(4-methoxyphenyl)allylidene)hydrazine-1-carboximidamide]
hBACE 1
  IC50: 173 ± 1.06 µM
EeAChE
  IC50: 139.1 ± 0.35 µM

## [H]/N=C(/N)NN=C(/C=C/c1ccc(OC)c(OC)c1)c1cccn1Cc1ccccc1 [Compound 1g, (Z)-2-((E)-1-(1-Benzyl-1H-pyrrol-2-yl)-3-(3,4-dimethoxyphenyl)allylidene)hydrazine-1-carboximidamide]
hBACE 1
  IC50: 114 ± 1.7 µM
EeAChE
  IC50: 146 ± 2.4 µM

## [H]/N=C(/N)NN=C(/C=C/c1ccc(C(C)C)cc1)c1cccn1Cc1ccccc1 [Compound 1h, (Z)-2-((E)-1-(1-Benzyl-1H-pyrrol-2-yl)-3-(4-isopropylphenyl)allylidene)hydrazine-1-carboximidamide]
hBACE 1
  IC50: 108 ± 1.2 µM
EeAChE
  IC50: 203.8 ± 1.7 µM

## [H]/N=C(/N)NN=C(/C=C/c1cccc(OC)c1)c1cccn1Cc1ccccc1 [Compound 1i, (Z)-2-((E)-1-(1-Benzyl-1H-pyrrol-2-yl)-3-(3-methoxyphenyl)allylidene)hydrazine-1-carboximidamide]
hBACE 1
  IC50: 134.1 ± 0.21 µM
EeAChE
  IC50: 206.6 ± 0.49 µM

## [H]/N=C(/N)NN=C(/C=C/c1ccccn1)c1cccn1Cc1ccccc1 [Compound 1j, (Z)-2-((E)-1-(1-Benzyl-1H-pyrrol-2-yl)-3-(pyridin-2-yl)allylidene)hydrazine-1-carboximidamide]
hBACE 1
  IC50: 13.7 ± 0.77 µM
hBACE 1; concentration not given
  BACE 1 inhibition (%): 43.62%
EeAChE
  IC50: 95.6 ± 2.4 µM

## [H]/N=C(/N)NN=C(/C=C/c1ccccc1)c1cccn1Cc1cc(OC)cc(OC)c1 [Compound 2a, (Z)-2-((E)-1-(1-(3,5-Dimethoxybenzyl)-1H-pyrrol-2-yl)-3-phenylallylidene)hydrazine-1-carboximidamide]
hBACE 1
  IC50: 95.8 ± 3.45 µM
EeAChE
  IC50: 231.2 ± 2.26 µM

## [H]/N=C(/N)NN=C(/C=C/c1ccccc1)c1cccn1Cc1ccc(OC(F)(F)F)cc1 [Compound 2b, (Z)-2-((E)-3-Phenyl-1-(1-(4-(trifluoromethoxy)benzyl)-1H-pyrrol-2-yl)allylidene)hydrazine-1-carboximidamide]
hBACE 1; [1]
  IC50: 86.19 ± 0.38 µM
EeAChE; [2]
  IC50: 231.7 ± 1.27 µM

## [H]/N=C(/N)NN=C(/C=C/c1ccccc1)c1cccn1Cc1ccc(OC(F)F)cc1 [Compound 2c, (Z)-2-((E)-1-(1-(4-(Difluoromethoxy)benzyl)-1H-pyrrol-2-yl)-3-phenylallylidene)hydrazine-1-carboximidamide]
hBACE 1; [1]
  IC50: 15.4 ± 0.24 µM
EeAChE; [2]
  IC50: 195.8 ± 0.99 µM

## [H]/N=C(/N)NN=C(/C=C/c1ccccc1)c1cccn1Cc1cc(F)ccc1F [Compound 2d, (Z)-2-((E)-1-(1-(2,5-Difluorobenzyl)-1H-pyrrol-2-yl)-3-phenylallylidene)hydrazine-1-carboximidamide]
hBACE 1; [1]
  IC50: 107 ± 3.04 µM
EeAChE; [2]
  IC50: 153 ± 1.98 µM

## [H]/N=C(/N)NN=C(/C=C/c1ccccc1)c1cccn1Cc1cc(Cl)ccc1Cl [Compound 2e, (Z)-2-((E)-1-(1-(2,5-Dichlorobenzyl)-1H-pyrrol-2-yl)-3-phenylallylidene)hydrazine-1-carboximidamide]
hBACE 1
  IC50: 178.2 ± 0.92 µM
EeAChE
  IC50: 75.6 ± 3.09 µM

## [H]/N=C(/N)NN=C(/C=C/c1ccccc1)c1cccn1Cc1ccc(C)cc1 [Compound 2f, (Z)-2-((E)-1-(1-(4-Methylbenzyl)-1H-pyrrol-2-yl)-3-phenylallylidene)hydrazine-1-carboximidamide]
hBACE 1
  IC50: 85.7 ± 2.43 µM
EeAChE
  IC50: 176.7 ± 0.64 µM

## [H]/N=C(/N)NN=C(/C=C/c1ccccc1)c1cccn1Cc1ccccc1F [Compound 2g, (Z)-2-((E)-1-(1-(2-Fluorobenzyl)-1H-pyrrol-2-yl)-3-phenylallylidene)hydrazine-1-carboximidamide]
hBACE 1
  IC50: 100.8 ± 0.57 µM
EeAChE
  IC50: 163 ± 3.18 µM

## [H]/N=C(/N)NN=C(/C=C/c1ccccc1)c1cccn1Cc1ccc(F)cc1C(F)(F)F [Compound 2h, (Z)-2-((E)-1-(1-(4-Fluoro-2-(trifluoromethyl)benzyl)-1H-pyrrol-2-yl)-3-phenylallylidene)hydrazine-1-carboximidamide]
hBACE 1
  IC50: 74.2 ± 1.8 µM
EeAChE
  IC50: 57.1 ± 3.91 µM

## [H]/N=C(/N)NN=C(/C=C/c1ccccc1)c1cccn1Cc1cc(C(F)(F)F)cc(C(F)(F)F)c1 [Compound 2i, (Z)-2-((E)-1-(1-(3,5-Bis(trifluoromethyl)benzyl)-1H-pyrrol-2-yl)-3-phenylallylidene)hydrazine-1-carboximidamide]
hBACE 1
  IC50: 139.1 ± 1.13 µM
EeAChE
  IC50: 77.56 ± 0.66 µM

## [H]/N=C(/N)NN=C(/C=C/c1ccccc1)c1cccn1Cc1ccc(CCCC)cc1 [Compound 2j, (Z)-2-((E)-1-(1-(4-Butylbenzyl)-1H-pyrrol-2-yl)-3-phenylallylidene)hydrazine-1-carboximidamide]
hBACE 1
  IC50: 132.7 ± 1.22 µM
EeAChE
  IC50: 55.4 ± 4.19 µM

## [H]/N=C(/N)NN=C(/C=C/c1ccccc1)c1cccn1Cc1ccc(F)cc1F [Compound 2k, (Z)-2-((E)-1-(1-(2,4-Difluorobenzyl)-1H-pyrrol-2-yl)-3-phenylallylidene)hydrazine-1-carboximidamide]
hBACE 1
  IC50: 133 ± 1.84 µM
EeAChE
  IC50: 61.1 ± 1.48 µM

## [H]/N=C(/N)NN=C(/C=C/c1ccccc1)c1cccn1Cc1ccc([N+](=O)[O-])cc1 [Compound 2l, (Z)-2-((E)-1-(1-(4-Nitrobenzyl)-1H-pyrrol-2-yl)-3-phenylallylidene)hydrazine-1-carboximidamide]
hBACE 1
  IC50: 193.35 ± 0.07 µM
EeAChE
  IC50: 43.6 ± 0.66 µM

## [H]/N=C(/N)NN=C(/C=C/c1ccccc1)c1cccn1Cc1cccc(Br)c1 [Compound 2m, (Z)-2-((E)-1-(1-(3-Bromobenzyl)-1H-pyrrol-2-yl)-3-phenylallylidene)hydrazine-1-carboximidamide]
hBACE 1
  IC50: 134 ± 3.11 µM
EeAChE
  IC50: 51.14 ± 0.22 µM

## [H]/N=C(/N)NN=C(/C=C/c1ccccc1)c1cccn1Cc1cccc(C#N)c1 [Compound 2o, (Z)-2-((E)-1-(1-(3-Cyanobenzyl)-1H-pyrrol-2-yl)-3-phenylallylidene)hydrazine-1-carboximidamide]
hBACE 1
  IC50: 147.8 ± 0.28 µM
EeAChE
  IC50: 75.4 ± 1.03 µM

## [H]/N=C(/N)NN=C(/C=C/c1ccccc1)c1cccn1Cc1cc(F)ccc1C [Compound 2p, (Z)-2-((E)-1-(1-(5-Fluoro-2-methylbenzyl)-1H-pyrrol-2-yl)-3-phenylallylidene)hydrazine-1-carboximidamide]
hBACE 1
  IC50: 145 ± 0.28 µM
EeAChE
  IC50: 80.13 ± 0.16 µM

## [H]/N=C(/N)NN=C(/C=C/c1ccccc1)c1cccn1Cc1ccc(C(C)(C)C)cc1 [Compound 2q, (Z)-2-((E)-1-(1-(4-(tert-Butyl)benzyl)-1H-pyrrol-2-yl)-3-phenylallylidene)hydrazine-1-carboximidamide]
hBACE 1
  IC50: 167.5 ± 0.71 µM
EeAChE
  IC50: 48.52 ± 0.23 µM

## [H]/N=C(/N)NN=C(/C=C/c1ccccc1)c1cccn1Cc1ccc(C(C)C)cc1 [Compound 2r, (Z)-2-((E)-1-(1-(4-Isopropylbenzyl)-1H-pyrrol-2-yl)-3-phenylallylidene)hydrazine-1-carboximidamide]
hBACE 1
  IC50: 191.3 ± 1.41 µM
EeAChE
  IC50: 50.4 ± 0.91 µM

## [H]/N=C(/N)NN=C(/C=C/c1ccc(F)cc1)c1cccn1Cc1ccc(Br)cc1 [Compound 3a, (Z)-2-((E)-1-(1-(4-Bromobenzyl)-1H-pyrrol-2-yl)-3-(4-fluorophenyl)allylidene)hydrazine-1-carboximidamide]
hBACE 1; [1]
  IC50: 165.7 ± 1.34 µM
EeAChE; [2]
  IC50: 86.09 ± 0.33 µM

## [H]/N=C(/N)NN=C(/C=C/c1ccc(C(F)(F)F)cc1)c1cccn1Cc1ccc(CCCC)cc1 [Compound 3b, (Z)-2-((E)-1-(1-(4-Butylbenzyl)-1H-pyrrol-2-yl)-3-(4-(trifluoromethyl)phenyl)allylidene)hydrazine-1-carboximidamide]
hBACE 1; [1]
  IC50: 204.6 ± 0.42 µM
EeAChE; [2]
  IC50: 57.4 ± 1.12 µM

## [H]/N=C(/N)NN=C(/C=C/c1ccc(OC)c(OC)c1)c1cccn1Cc1ccc(F)cc1C(F)(F)F [Compound 3c, (Z)-2-((E)-3-(3,4-Dimethoxyphenyl)-1-(1-(4-fluoro-2-(trifluoromethyl)benzyl)-1H-pyrrol-2-yl)allylidene)hydrazine-1-carboximidamide]
hBACE 1; [1]
  IC50: 204 ± 2.33 µM
EeAChE; [2]
  IC50: 58.19 ± 0.44 µM

## [H]/N=C(/N)NN=C(/C=C/c1ccc(C(C)(C)C)cc1)c1cccn1Cc1ccc(F)cc1F [Compound 3d, (Z)-2-((E)-3-(4-(tert-Butyl)phenyl)-1-(1-(2,4-difluorobenzyl)-1H-pyrrol-2-yl)allylidene)hydrazine-1-carboximidamide]
hBACE 1; [1]
  IC50: 221.8 ± 1.27 µM
EeAChE; [2]
  IC50: 104.3 ± 0.14 µM

## [H]/N=C(/N)NN=C(/C=C/c1ccc(OC)c(OC)c1)c1cccn1Cc1cc(OC)cc(OC)c1 [Compound 3e, (Z)-2-((E)-1-(1-(3,5-Dimethoxybenzyl)-1H-pyrrol-2-yl)-3-(3,4-dimethoxyphenyl)allylidene)hydrazine-1-carboximidamide]
hBACE 1
  IC50: 162 ± 2.43 µM
EeAChE
  IC50: 57.2 ± 2.47 µM
